Measured values published in ChEMBL document CHEMBL6127064, “Discovery of GNE-6893, a Potent, Selective, Orally Bioavailable Small Molecule Inhibitor of HPK1” (ACS Med Chem Lett, 2024).
≈ marks a conversion by molar mass, not a printed value.

Tests used:
[1] = target: T1, Mitogen-activated protein kinase kinase kinase kinase 1 (Homo sapiens, UniProt Q92918); assay: Inhibition of HPK1 in human Jurkat cells assessed as inhibition of anti-CD3/anti-CD28-induced SLP76 phosporylation at Ser376 residue incubated for 30 mins by ELISA; type: cell-based
Target sequence in this assay (Q92918 whole entry): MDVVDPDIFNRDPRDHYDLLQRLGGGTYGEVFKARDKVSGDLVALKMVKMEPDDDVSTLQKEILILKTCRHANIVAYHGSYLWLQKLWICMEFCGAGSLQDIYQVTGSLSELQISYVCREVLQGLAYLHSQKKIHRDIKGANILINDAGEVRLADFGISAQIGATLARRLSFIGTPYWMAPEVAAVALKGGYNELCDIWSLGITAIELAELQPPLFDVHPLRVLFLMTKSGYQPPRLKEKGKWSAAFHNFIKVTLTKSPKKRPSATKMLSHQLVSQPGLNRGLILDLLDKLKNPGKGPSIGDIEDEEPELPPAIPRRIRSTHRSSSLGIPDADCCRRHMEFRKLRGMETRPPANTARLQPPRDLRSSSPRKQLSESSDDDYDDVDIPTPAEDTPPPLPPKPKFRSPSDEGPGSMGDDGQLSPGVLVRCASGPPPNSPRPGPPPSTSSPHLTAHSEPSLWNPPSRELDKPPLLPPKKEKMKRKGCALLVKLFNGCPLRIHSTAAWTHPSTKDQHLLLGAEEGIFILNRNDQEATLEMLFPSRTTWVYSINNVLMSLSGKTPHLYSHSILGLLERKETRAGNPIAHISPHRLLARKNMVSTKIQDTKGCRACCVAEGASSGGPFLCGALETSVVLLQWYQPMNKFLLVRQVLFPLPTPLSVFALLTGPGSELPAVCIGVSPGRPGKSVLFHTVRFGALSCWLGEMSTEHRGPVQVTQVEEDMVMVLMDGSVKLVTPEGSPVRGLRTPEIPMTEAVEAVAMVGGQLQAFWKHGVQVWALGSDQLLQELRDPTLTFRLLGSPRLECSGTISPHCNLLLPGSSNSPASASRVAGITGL

[2] = Volume of distribution at steady state in Sprague-Dawley rat at 0.5 mg/kg, iv measured for 8 hrs by LC-MS/MS analysis; type: ADME, organism-based; details: in vivo, read-out: Vdss
[3] = Apparent permeability of the compound across apical to basolateral side in dog MDCK1 cells at 10 uM by LC-MS/MS analysis; type: ADME, cell-based, Canis lupus familiaris; details: MDCK
[4] = Volume of distribution at steady state in C57BL/6 mouse at 25 mg/kg, po or 1 mg/kg, iv measured for 24 hrs by LC-MS/MS analysis; type: ADME, organism-based; details: in vivo
[5] = Half life in Sprague-Dawley rat at 0.5 mg/kg, iv measured for 8 hrs by LC-MS/MS analysis; type: ADME, organism-based; details: in vivo
[6] = Clearance in Sprague-Dawley rat at 0.5 mg/kg, iv measured for 8 hrs by LC-MS/MS analysis; type: ADME, organism-based; details: in vivo
[7] = Oral bioavailability in C57BL/6 mouse at 25 mg/kg measured for 24 hrs by LC-MS/MS analysis; type: ADME, organism-based; details: in vivo
[8] = Oral bioavailability in Sprague-Dawley rat; type: ADME, organism-based; details: in vivo
[9] = Inhibition of human full length HPK1-T165E/S171E mutant expressed in baculovirus expression system assessed as inhibition of SLP76 phosphorylation using biotinylated SLP76 as substrate preincubated for 30 mins followed by incubation with substrate in presence of ATP and measured for 60 mins by HTRF assay
[10] = Kinetic solubility of the compound in PBS at pH 7.4; type: physicochemical; details: read-out: Kinetic_solubility
[11] = target: T1, Mitogen-activated protein kinase kinase kinase kinase 1; assay: Inhibition of HPK1 in primary human Pan T cells assessed as increase in IL-2 secretion pretreated for 30 mins followed by incubation with anti-CD3/anti-CD28 and measured after 4 hrs by MSD assay; type: cell-based, T cell
Target sequence in this assay (Q92918 whole entry): as above

[12] = Half life in C57BL/6 mouse at 25 mg/kg, po or 1 mg/kg, iv measured for 24 hrs by LC-MS/MS analysis; type: ADME, organism-based; details: in vivo
[13] = target: T1, Mitogen-activated protein kinase kinase kinase kinase 1; assay: Inhibition of HPK1 in primary human Pan T cells assessed as increase in IL-2 secretion pretreated for 30 mins followed by incubation with anti-CD3/anti-CD28 and measured after 4 hrs by MSD assay relative to control; type: cell-based; details: T cell, time 4.5 hrs
Target sequence in this assay (Q92918 whole entry, looked up): as the sequence (Q92918 whole entry) above

Row | Compound | IC50 [1] [nM] | Vd [2] [L/kg] | Papp A→B at 10 µM [3] [×10⁻⁶ cm/s] | Vdss [4] [L/kg] | half-life [5] [min] | clearance [6] [mL/min/kg] | bioavailability ([7]; C57BL/6, mouse) [%] | bioavailability [8] [%] | Ki [9] [nM] | solubility kinetic [10] [µM] | EC50 [11] [nM] | half-life [12] [min] | F ([7]; mouse, po, 25 mg/kg, 24 h, BLD = below limit of detection) | fold change (FC) [13]
1 | Cc1c(-c2cc3cc(NC(=O)OC4CCOCC4)ncc3c(N)c2F)cnc2c1NCCO2 | 97 | 1.5 | 18 | 1.3 | 90 | 17 | 31 | 16 | < 0.019 | 1.5 (≈ 0.68 µg/mL) | 39 | 66 | – | –
2 | Cc1c(N)cncc1-c1cc2cc(Nc3cc4n(n3)CC(=O)N(C)CC4)ncc2c(N)c1F | 110 | 2.2 | 0.4 | 1.3 | 34.2 | 64 | – | – | – | – | 11 | 15.6 | Bld | –
3 | Cc1ccncc1-c1cc2cc(Nc3cc4n(n3)CC(=O)N(C)CC4)ncc2c(N)c1F | – | – | – | – | – | – | – | – | 0.16 | – | – | – | – | –
4 | Cc1ccncc1-c1cc(N)c2cnc(NC(=O)[C@@H]3C[C@H]3C#N)cc2c1 | – | – | – | – | – | – | – | – | 4.9 | – | – | – | – | 5
